According to patent US4268680A, “Heterocyclic derivatives of 1-(1,3-dioxolan-2-ylmethyl)-1H-imidazoles and 1H-1,2,4-triazoles” (Janssen Pharmaceutica N.V., priority 1979, dated 1981):

System: Candida albicans
Assay: Experiment B: Activity of compounds (I) against crop candidosis in turkeys
Assay type: in vivo
Details: Table II; medicated feed for 13 consecutive days; crops of 50% of the animals completely negative for Candida albicans
Experimental: Experiment B: Activity of compounds (I) against crop candidosis in turkeys. Turkeys of 14 days old were infected in the crop with 4.10^6 Candida albicans cells, grown on Sabouraud broth for 48 hours at 37° C. and diluted with saline. The volume of the inoculum was 1 ml. The drug under investigation were premixed in 500 mg of lacton and thereafter admixed in 1000 g of meal without any additives. The concentration of the drug under investigation in the meal was expressed in mg/kg. The animals were given the medicated feed for 13 consecutive days starting on the day of infection. At the end of the experiment all animals were sacrificed. At autopsy the crops were removed, emptied and grinded in an ultra-turrax mixer in 15 ml of sterile saline. Colony counting was done on Sabouraud agar and the results given in Tables I and II represent the ED50, i.e., the dose of the drug whereby the crops of 50% of the animals were completely negative for Candida albicans.

Compound: Clc1ccc(C2(Cn3cncn3)OCC(COc3ccc(-n4ccnc4)cc3)O2)c(Cl)c1 (stereo not shown)
- Crop candidosis in Turkeys: EO50 in mg/kg in feed: 8 mg/kg in feed
